{"source": "patent US20160271160A1", "about": "“HCV POLYMERASE INHIBITORS” (MEDIVIR AB, priority 2013, published 2016)", "assay_type_in_all_cases": "cell-based", "key": {"HCV GT1b (stable)": {"system": "HCV GT1b (stable)", "assay": "HCV GT1b (stable) replicon", "settings": "Hepatitis C virus, wild type, geometric mean", "from_the_text": "(§1) The compound of Example 2 was further evaluated to assess the antiviral activity against genotypes 1-6 of HCV, both wild type and a number of clinically relevant mutant strains. The result of the evaluation together with the average EC50 of a genotypes and the corresponding values for compound 40ii of WO2014/058801 are summarised in Tables 2 and 3."}, "HCV GT1b (transient)": {"system": "HCV GT1b (transient)", "assay": "HCV GT1b (transient) replicon", "settings": "Hepatitis C virus, wild type, geometric mean", "from_the_text": "as §1"}, "[1]": {"system": "HCV GT1a NS5B in con1 background", "assay": "HCV GT1a chimeric replicon", "settings": "Hepatitis C virus", "from_the_text": "as §1"}, "HCV GT2a virus": {"system": "HCV GT2a virus", "assay": "HCV GT2a virus", "settings": "Hepatitis C virus, wild type, geometric mean", "from_the_text": "as §1"}, "[2]": {"system": "HCV GT3a NS5B in con1 background", "assay": "HCV GT3a chimeric replicon", "settings": "Hepatitis C virus", "from_the_text": "as §1"}, "[3]": {"system": "HCV GT4a NS5B in con1 background", "assay": "HCV GT4a chimeric replicon", "settings": "Hepatitis C virus", "from_the_text": "as §1"}, "[4]": {"system": "HCV GT5a NS5B in con1 background", "assay": "HCV GT5a chimeric replicon", "settings": "Hepatitis C virus", "from_the_text": "as §1"}, "[5]": {"system": "HCV GT6a NS5B in con1 background", "assay": "HCV GT6a chimeric replicon", "settings": "Hepatitis C virus", "from_the_text": "as §1"}, "[6]": {"system": "genotypes 1-6 of HCV, wild type", "assay": "Wild type HCV genotype panel, average", "from_the_text": "as §1"}, "HCV GT1b S282T": {"system": "HCV GT1b S282T", "assay": "HCV GT1b S282T mutant replicon", "from_the_text": "as §1"}, "HCV GT1a S282T": {"system": "HCV GT1a S282T", "assay": "HCV GT1a S282T chimeric mutant replicon", "from_the_text": "as §1"}, "HCV GT3a S282T": {"system": "HCV GT3a S282T", "assay": "HCV GT3a S282T chimeric mutant replicon", "from_the_text": "as §1"}, "HCV GT4a S282T": {"system": "HCV GT4a S282T", "assay": "HCV GT4a S282T chimeric mutant replicon", "from_the_text": "as §1"}, "HCV mutant strains": {"system": "HCV mutant strains", "assay": "Mutant HCV panel, average", "from_the_text": "as §1"}}, "data": [{"smiles": "CC(C)OC(=O)[C@H](C)OP(=O)(OC[C@H]1O[C@@H](n2ccc(=O)[nH]c2=O)[C@](C)(Cl)[C@@H]1O)Oc1ccccc1", "note": "(some centres unmarked) [Cpd. 40ii of WO2014/058801]", "values": [{"measurement": "EC50", "setting": "HCV GT1b (stable)", "result": 91, "unit": "nM"}, {"measurement": "EC50", "setting": "HCV GT1b (transient)", "result": 93, "unit": "nM"}, {"measurement": "EC50", "setting": "[1]", "result": 140, "unit": "nM"}, {"measurement": "EC50", "setting": "HCV GT2a virus", "result": 26, "unit": "nM"}, {"measurement": "EC50", "setting": "[2]", "result": 139, "unit": "nM"}, {"measurement": "EC50", "setting": "[3]", "result": 149, "unit": "nM"}, {"measurement": "EC50", "setting": "[4]", "result": 105, "unit": "nM"}, {"measurement": "EC50", "setting": "[5]", "result": 170, "unit": "nM"}, {"measurement": "EC50", "setting": "[6]; Hepatitis C virus, wild type assays, arithmetic mean +/− SEM", "result": 114, "unit": "nM"}, {"measurement": "potency increase vs cpd. 40ii of WO2014/058801", "setting": "[6]; wild type, from AVG EC50", "result": 1.0}, {"measurement": "EC50", "setting": "HCV GT1b S282T; Hepatitis C virus, geometric mean", "result": 344, "unit": "nM"}, {"measurement": "FC vs WT", "setting": "HCV GT1b S282T; fold change of EC50", "result": 3.7}, {"measurement": "FC vs WT", "setting": "HCV GT1a S282T; HCV GT1a S282T, fold change of EC50", "result": 4.0}, {"measurement": "EC50", "setting": "HCV GT1a S282T; Hepatitis C virus, GT1A", "result": 554, "unit": "nM"}, {"measurement": "FC vs WT", "setting": "HCV GT3a S282T; HCV GT3a S282T, fold change of EC50", "result": 2.6}, {"measurement": "EC50", "setting": "HCV GT3a S282T; Hepatitis C virus, GT3A", "result": 366, "unit": "nM"}, {"measurement": "FC vs WT", "setting": "HCV GT4a S282T; HCV GT4a S282T, fold change of EC50", "result": 12}, {"measurement": "EC50", "setting": "HCV GT4a S282T; Hepatitis C virus, GT4A", "result": 1720, "unit": "nM"}, {"measurement": "EC50", "setting": "HCV mutant strains; Hepatitis C virus, read-out: AVG EC50", "result": 746, "unit": "nM"}, {"measurement": "potency increase vs cpd. 40ii of WO2014/058801", "setting": "HCV mutant strains; {}", "result": 1.0}]}]}
